Data on nine molecules can be found in paper PMC4573853 (Genes & Development, 2015).

No end group written: not given here.

For experiment [1], the system named is taf14Δ cells. Kind of experiment: Spotting assay, sensitivity to DNA-damaging agents. It is filed as cell-based, S. cerevisiae. The settings on record: Supplemental Fig. S3D.
The test system of experiment [2] is taf14Δ cells. As to conditions: ref Zhang et al. 2004; cited from earlier work.
Experiment [3] has as its target T1, Taf14 YEATS (residues 1–132) (Saccharomyces cerevisiae, UniProt P35189).
T1 sequence (P35189 1-132): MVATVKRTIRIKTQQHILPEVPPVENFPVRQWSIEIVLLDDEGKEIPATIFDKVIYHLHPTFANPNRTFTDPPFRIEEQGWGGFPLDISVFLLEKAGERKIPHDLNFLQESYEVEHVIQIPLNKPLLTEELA
Kind of experiment: NMR chemical shift perturbation. It is filed as binding, S. cerevisiae. As to conditions: for amide resonance changes / interaction: 15N-labeled Taf14 YEATS (1–132), peptide titration.

The test system of experiment [4] is taf14Δ strain (BY4741 background). Kind of experiment: Spotting assay on 6-azauracil medium. It is filed as cell-based, S. cerevisiae. The settings on record: Fig. 4F.
Experiment [5] has as its system Yaf9 YEATS domain. As to conditions: capacity to bind in vitro; ref Li et al. 2014; cited from earlier work.
Setting [6] is: 1H,15N HSQC, Supplemental Fig. S2A.

Consider `NC(=O)NO` [HU, hydroxyurea], for which the “sensitivity of taf14Δ strain” value in experiment [1] is reported as “sensitivity”. In addition, in experiment [2], the “sensitivity of taf14Δ cells” value is listed as “sensitive”.
Regarding H3K9ac1–12: H3K9ac1–12 peptide, the “amide resonance changes / interaction” value in experiment [3] (1H,15N HSQC) is reported as “strong interaction”.
`O=c1cn[nH]c(=O)[nH]1` [6-AU, 6-azauracil]: the “rescue of 6-AU growth by taf14W81A” value in experiment [4] (taf14Δ expressing taf14W81A) is listed as “unable to rescue”. Moreover, the “rescue of 6-AU sickness by exogenous TAF14” value in experiment [4] (taf14Δ expressing wild-type TAF14) is on record as “could rescue”.
Take phleomycin: the “sensitivity of taf14Δ strain” value in experiment [1] was “sensitivity”.
Consider `CC(=O)NCCCC[C@H](N)C(=O)O` [acetylated lysine], for which the “amide resonance changes / interaction” value in experiment [3] (1H,15N HSQC) is recorded as “CSPs primarily in an acetyllysine-binding pocket”.
“H3K27ac: H3 peptide acetylated at Lys27 (ATKAARK(Ac)SAPA)”: in experiment [5], the “preference of Yaf9 YEATS domain” value is recorded as “capacity to bind”.
Turning to “H3K9ac5–13: H3K9ac5–13 peptide (Ac-QTARK(Ac)STGG)”, in experiment [3] (setting [6]), the “binding relative to H3K9ac1–12” value is “slightly decreased” and the “resonance perturbation pattern relative to H3K9ac1–12” value was “nearly identical resonance perturbation pattern”.
Consider “H3K27ac21–31: H3K27ac21–31 peptide (ATKAARK(Ac)SAPA)”, for which the “CSP magnitude relative to H3K9ac” value in experiment [3] (1H,15N HSQC, Supplemental Fig. S2B) is recorded as “smaller in magnitude”. For the same molecule, the “binding relative to H3K9ac” value in experiment [3] (inferred from CSP magnitude, Supplemental Fig. S2B) is listed as “weaker”.
Consider `COS(C)(=O)=O` [MMS, methane methylsulfonate], for which the “effect of Taf14 YEATS disruption on response to agent” value in experiment [1] (taf14Δ expressing taf14W81A) was “significantly impaired the response”. The “sensitivity of taf14Δ cells” value in experiment [2] is listed as “sensitive”.
